Measured values taken from US20070105877A1, “Pyrazolopyrimidines” (priority 2003, published 2007).

Molecular target: PDE-5 (UniProt O76074)
Assay: In vitro PDE inhibitory activity against PDE5 (batch method or scintillation proximity assay)
Type: biochemical, human or rabbit
Conditions: representative preferred compounds
From the text: The compounds of the invention are inhibitors of cyclic guanylate monophosphate (cGMP)-specific phosphodiesterase type 5 (PDE-5 inhibitors).
In particular, cGMP-specific PDE5 and cGMP-inhibited cAMP PDE3 can be obtained from human corpus cavernosum tissue, human platelets or rabbit platelets; cGMP-stimulated PDE2 was obtained from human corpus cavernosum; calcium/calmodulin (Ca/CAM)-dependent PDE1 from human cardiac ventricle; cAMP-specific PDE4 from human skeletal muscle; and photoreceptor PDE6 from bovine retina. Phosphodiesterases 7-11 can be generated from full length human recombinant clones transfected into SF9 cells.
In summary, for the scintillation proximity assay the effect of PDE inhibitors was investigated by assaying a fixed amount of enzyme in the presence of varying inhibitor concentrations and low substrate, (cGMP or cAMP in a 3:1 ratio unlabelled to [^3H]-labeled at a concentration of ˜⅓ Km or less) such that IC50≅Kl. The final assay volume was made up to 100 μl with assay buffer [20 mM Tris-HCl pH 7.4, 5 mM MgCl2, 1 mg/ml bovine serum albumin]. Reactions were initiated with enzyme, incubated for 30-60 min at 30° C. to give <30% substrate turnover and terminated with 50 μl yttrium silicate SPA beads (containing 3 mM of the respective unlabelled cyclic nucleotide for PDEs 9 and 11).

Row | IC50 [pM] | Compound
1 | 333 | CCNC(=O)c1nn(CCOCC)c2c(Nc3cc(C)ccn3)nc(NCC)nc12 [Example 8, 1-(2-ethoxyethyl)-N-ethyl-5-(ethylamino)-7-(4-methylpyridin-2-ylamino)-1H-pyrazolo[4,3-d]pyrimidine-3-carboxamide]
2 | 260 | CCOCCn1nc(C(=O)NC)c2nc(N(C)C)nc(Nc3cc(C)ccn3)c21 [Example 14, 5-(dimethylamino)-1-(2-ethoxyethyl)-N-methyl-7-(4-methylpyridin-2-ylamino)-1H-pyrazolo[4,3-d]pyrimidine-3-carboxamide]
3 | 400 | CCOCCn1nc(C(=O)NCCNC)c2nc(N(C)C)nc(Nc3cc(C)ccn3)c21 [Example 16]
4 | 240 | CCOCCn1nc(C(=O)NCCN(C)C)c2nc(N(C)C)nc(Nc3cc(C)ccn3)c21 [Example 17, 5-(dimethylamino)-N-(2-(dimethylamino)ethyl)-1-(2-ethoxyethyl)-7-(4-methylpyridin-2-ylamino)-1H-pyrazolo[4,3-d]pyrimidine-3-carboxamide]
5 | 60 | CCOCCn1nc(C(=O)NC2CCNCC2)c2nc(N(C)C)nc(Nc3cc(C)ccn3)c21 [Example 18]
6 | 90 | CCOCCn1nc(C(=O)NCCOC)c2nc(N(C)C)nc(Nc3cc(C)ccn3)c21 [Example 19, 5-(dimethylamino)-1-(2-ethoxyethyl)-N-(2-methoxyethyl)-7-(4-methylpyridin-2-yl-amino)-1H-pyrazolo[4,3-d]pyrimidine-3-carboxamide]
7 | 20 | CCOCCn1nc(C(=O)N[C@H](C)C(=O)O)c2nc(N(C)C)nc(Nc3cc(C)ccn3)c21 [Example 22, (2R)-2-{[5-(dimethylamino)-1-(2-ethoxyethyl)-7-(4-methylpyridin-2-ylamino)-1H-pyrazolo[4,3-d]pyrimidine-3-carbonyl]amino}propionic acid]
8 | 40 | CCOCCn1nc(C(=O)NCCC(=O)O)c2nc(N(C)C)nc(Nc3cc(C)ccn3)c21 [Example 23, 3-{[5-(dimethylamino)-1-(2-ethoxyethyl)-7-(4-methylpyridin-2-ylamino)-1H-pyrazolo[4,3-d]pyrimidine-3-carbonyl]amino}propionic acid]
9 | 1650 | CCOCCn1nc(C(=O)NC)c2nc(N3CCN[C@H](C)C3)nc(Nc3cc(C)ccn3)c21 [Example 30, 1-(2-ethoxyethyl)-N-methyl-5-((3R)-3-methylpiperazin-1-yl)-7-(4-methylpyridin-2-yl-amino)-1H-pyrazolo[4,3-d]pyrimidine-3-carboxamide]
10 | 730 | CCNC(=O)c1nn(CCOCC)c2c(Nc3cc(C)ccn3)nc(N3CCN[C@H](C)C3)nc12 [Example 32]
11 | 1310 | CCNc1nc(Nc2cc(C)ccn2)c2c(n1)c(C(=O)NC)nn2CCOCC [Example 50, 1-(2-Ethoxyethyl)-5-(ethylamino)-N-methyl-7-(4-methylpyridin-2-ylamino)-1H-Pyrazolo[4,3-d]pyrimidine-3-carboxamide]
12 | 1630 | CCOCCn1nc(C(=O)NCCOC)c2nc(NC)nc(Nc3cc(C)ccn3)c21 [Example 56, 1-(2-ethoxyethyl)-N-(2-methoxyethyl)-5-(methylamino)-7-(4-methylpyridin-2-ylamino)-1H-pyrazolo[4,3-d]pyrimidine-3-carboxamide]
13 | 130 | CCOCCn1nc(C(=O)NCCO)c2nc(N(C)C)nc(Nc3cc(C)ccn3)c21 [Example 58, 5-(dimethylamino)-1-(2-ethoxyethyl)-N-(2-hydroxyethyl)-7-(4-methylpyridin-2-yl-amino)-1H-pyrazolo[4,3-d]pyrimidine-3-carboxamide]
14 | 570 | CCNc1nc(Nc2cc(C)ccn2)c2c(n1)c(C(=O)NCCOC)nn2CCOCC [Example 60, 1-(2-ethoxyethyl)-5-(ethylamino)-N-(2-methoxyethyl)-7-(4-methylpyridin-2-ylamino)-1H-pyrazolo[4,3-d]pyrimidine-3-carboxamide]
15 | 120 | CCOCCn1nc(C(=O)NC)c2nc(N(C)CCO)nc(Nc3cc(C)ccn3)c21 [Example 61]
16 | 1880 | CCOCCn1nc(C(=O)NC)c2nc(NCCOC)nc(Nc3cc(C)ccn3)c21 [Example 62, 1-(2-ethoxyethyl)-5-((2-methoxyethyl)amino)-N-methyl-7-(4-methylpyridin-2-ylamino)-1H-pyrazolo[4,3-d]pyrimidine-3-carboxamide]
17 | 2950 | CCOCCn1nc(C(=O)NC)c2nc(N3CCN[C@H](C)C3)nc(NC3CCCCC3)c21 [Example 71, 7-(cyclohexylamino)-1-(2-ethoxyethyl)-N-methyl-5-((3R)-3-methylpiperazin-1-yl)-1H-pyrazolo[4,3-d]pyrimidine-3-carboxamide]
18 | 420 | CCOCCn1nc(C(=O)NC)c2nc(N(C)[C@H]3CCN(C)C3)nc(Nc3cc(C)ccn3)c21 [Example 73, 1-(2-Ethoxyethyl)-N-methyl-5-[N-methyl-N-((3S)-1-methylpyrrolidin-3-yl)amino]-7-(4-methylpyridin-2-ylamino)-1H-pyrazolo[4,3-d]pyrimidine-3-carboxamide]
